# Patent publication US20060040872A1, “Calcium channel inhibitor” (SENMI EKISU CO., LTD, priority 2004, published 2006)
# Where a SMILES comes first, the peptide text is derived from it.
# Assays:
# Assay type in all cases: cell-based
# [1] = test system: normal human aortic vessel smooth muscle cells (VSMC); assay: Influence on VSMC growth by Ang II stimulation (WST-8); details: 48 hours
# Protocol: (§1) As to cells, normal human aortic vessel smooth muscle cells (VSMC; Cyro AOSMC (trade name) manufactured by Sanko Junyaku Co.) were used while, as to VY, valyl-tyrosine which was chemically synthesized was used and a calcium channel inhibiting action by VY was confirmed.
# When Ang II (angiotensin II) is added to an incubated liquid of VSMC, cell growth thereof is promoted. It has been known to be due to the fact that Ang II is bonded to an AT1 receptor existing on the surface of VSMC, the bonding signal flows in the cells and, as a result, calcium channel opens and calcium ion flows into the cells. Such a mechanism was utilized to conduct the following experiment.
# VSMC was pre-incubated for 24 hours on a serum-free medium on a 96-well plate and three kinds of samples—a control to which no additive was added, a sample to which only Ang II was added in a concentration of 1 μM (Ang II (+)) and a sample to which Ang II and VY were added in concentrations of 1 μM and 1 mM, respectively (Ang II(+)VY(+))—were incubated for 48 hours. Then 10 μM of WST-8 was added thereto and amount of water-soluble formazan resulted by color reaction at 37° C. for 3 hours in a CO2 incubator was measured from absorbance at 450 nm whereupon cell growth was measured form the synthesized amount of DNA. The result which was made into a graph is FIG. 14 (effect of VY on Ang II stimulation).
# Further, cell growth when concentration of VY added by the same method was made 0 μM, 1 μM, 10 μM, 100 μM and 1 mM was measured. That is, VSMC was pre-incubated on a serum-free medium for 24 hours on a 96-well plate and six kinds of samples—a control where nothing was added and five samples where Ang II was added in a concentration of 1 μM and VY was further added in concentrations 0 μM, 1 μM, 10 μM, 100 μM and 1 mM—were incubated for 48 hours. Then 10 μM WST-8 was added thereto and amount of water-soluble formazan produced by color reaction at 37° C. for 3 hours in a CO2 incubator was determined from absorbance at 450 nm whereupon cell growth was measured from the synthesized amount of DNA. The result which was made into a graph is FIG. 15 (dependency of VY concentration to VSMC growth by Ang II stimulation).
# VSMC was pre-incubated in a serum-free-medium for 24 hours on a 96-well plate, then 1 μM of captopril which is an ACE inhibitor was added thereto and incubation was conducted for 48 hours. Then 10 μM WST-8 was added thereto and amount of water-soluble formazan produced by color reaction for 3 hours was determined from absorbance at 450 nm whereupon cell growth was measured from synthesized amount of DNA. The result which was made into a graph is FIG. 16 (influence of ACE inhibitor on Ang II stimulation).
# [2] = test system: normal human aortic vessel smooth muscle cells (VSMC); assay: Influence on calcium channel agonist (Bay K 8644) stimulation of VSMC growth (WST-8); details: 48 hours
# Protocol: Inflow of calcium ion which is downstream of Ang II stimulation showing a cell growth promoting action was investigated. […] Then 10 μM of WST-8 was added thereto and amount of water-soluble formazan produced by color reaction for 3 hours at 37° C. in a CO2 incubator was determined by absorbance at 450 nm whereupon cell growth was measured from the synthesized amount of DNA.
# Then 10 μM of WST-8 was added thereto and amount of water-soluble formazan produced by color reaction for 3 hours at 37° C. in a CO2 incubator was determined by absorbance at 450 nm whereby cell growth was measured from synthesized amount of DNA.
# [3] = test system: normal human aortic vessel smooth muscle cells (VSMC); assay: Influence of VY on VSMC growth in the presence of 5% FBS (Trypan Blue living cell count); details: VY 0, 50 and 100 μM, 5 v/v % FBS medium, 5 days at 37° C., FIG. 12
# Protocol: as §1
# VSMC (1×10^5 cell/ml) was pre-incubated for 24 hours in a serum-free medium and transferred to a medium containing 5 v/v % of FBS (fetal bovine serum), 1 w/v % of hEGF (human epidermal growth factor) and 1 w/v % of hEGF-β, then VY was added thereto so as to make its concentrations 0, 50 and 100 μM and incubation of the resulting mixtures was conducted for 5 days at 37° C. in a CO2 incubator. This was stained with Trypan Blue and living cells were counted by a blood corpuscle counter. The result which is made into a graph is FIG. 12 (effect of addition of VY in the presence of 5% FBS).
# [4] = test system: normal human aortic vessel smooth muscle cells (VSMC); assay: VY toxicity test on VSMC (WST-8); details: 0 mM or 1 mM VY; 48 hours; serum-free; WST-8 absorbance at 450 nm; FIG. 13
# Protocol: as §1
# In order to check the toxicity of VY, VSMC was pre-incubated for 24 hours on a serum-free medium on a 96-well plate, 0 mM or 1 mM of VY was added thereto and incubation was conducted for 48 hours. To this was added a solution containing 10 μM of WST-8 (2-(2-methoxy-4-nitrophenyl)-3-(4-nitrophenyl)-5-(2,4-disulfophenyl)-2H-tetrazolium (Cell Counting Kit-8; manufactured by Dojin Kagaku CO.)), color reaction was conducted in a CO2 incubator at 37° C. for 3 hours and the amount of the resulting water-soluble formazan was determined by absorbance at 450 nm where cell growth was measured from the synthesized amount of DNA. The result which was made into a graph is FIG. 13 (VY toxicity test). As a result, it was noted that there was no difference between their cell growths and that VY is non-toxic.
# [5] = test system: normal human aortic vessel smooth muscle cells (VSMC); assay: Influence of VY on Ang II receptor: VSMC growth with Ang II and saralasin (WST-8); details: 48 hours, FIG. 17
# Protocol: as §1
# Influence of VY on Ang II receptor AT1 existing on the surface of VSMC was investigated. That is, VSMC was pre-incubated in a serum-free medium for 24 hours on a 96-well plate and incubation was conducted for 48 hours after 1 μM of Ang II was added, 10 μM of saralasin which is an Ang II antagonist was added, each 1 μM of Ang II and saralasin were added or each 1 μM of Ang II and saralasin and 1 mM of VY were added. Then 10 μM of WST-8 was added thereto and amount of water-soluble formazan formed by color reaction for 3 hours at 37° C. in a CO2 incubator was determined by absorbance at 450 nm whereby cell growth was measured from the synthesized amount of DNA. The result which was made into a graph is FIG. 17 (effect of VY and saralasin (Ang II antagonist) on Ang II stimulation).
compound,measurement,setting,value
"angiotensin II (DRVYIHPF; Angiotensin-2; UniProt P01019 25-32, looked up) [Ang II, angiotensin II, promotes VSMC growth via AT1 receptor, reference compound]",cell growth,"[1]; Ang II alone 1 μM, FIG. 14",growth was strongly promoted
"CC(C)[C@H](N)C(=O)N[C@@H](Cc1ccc(O)cc1)C(=O)O [VY, valyl-tyrosine] (H-Val-Tyr-OH)",cell growth under Bay K 8644 stimulation,"[2]; 1 μM of Bay K 8644 and 1 mM of VY, FIG. 18",suppressed cell growth promoting activity as same as in the case of addition of verapamil
same,dependency on concentration of VY to Bay K 8644 stimulation (cell growth),"[2]; 1 μM of Bay K 8644 with 0, 10 μM, 100 μM or 1 mM of VY, FIG. 19",suppressive effect to VSMC growth by Bay K 8644 stimulation in a concentration-dependent manner
same,cell growth (living cells counted),[3],cell growth was suppressed in proportion to the added VY concentration
same,toxicity (cell growth),[4],non-toxic
same,cell growth,[5]; each 1 μM of Ang II and saralasin and 1 mM of VY,no growth promoting effect was noted
same,cell growth under Ang II stimulation,"[1]; Ang II 1 μM and VY 1 mM, FIG. 14",cell growth was not promoted
same,dependency of VY concentration to VSMC growth by Ang II stimulation,"[1]; Ang II 1 μM, VY 0 μM, 1 μM, 10 μM, 100 μM and 1 mM, FIG. 15",suppressive effect to the growth of VSMC by Ang II stimulation in a concentration-depending manner
"COc1ccc(CCN(C)CCCC(C#N)(c2ccc(OC)c(OC)c2)C(C)C)cc1OC (stereo not shown) [verapamil, reference compound]",cell growth under Bay K 8644 stimulation,"[2]; each 1 μM of Bay K 8644 and verapamil, FIG. 18",suppressed the cell growth promoting activity
"COC(=O)C1=C(C)NC(C)=C([N+](=O)[O-])C1c1ccccc1C(F)(F)F (stereo not shown) [Bay K 8644, reference compound]",cell growth,"[2]; Bay K 8644 alone 1 μM, FIG. 18",cell growth was promoted
"C[C@H](CS)C(=O)N1CCC[C@H]1C(=O)O [captopril, reference compound]",influence of ACE inhibitor on Ang II stimulation (cell growth),"[1]; captopril 1 μM, FIG. 16",did not show a suppressive action to Ang II stimulation
CNCC(=O)N[C@@H](CCCN=C(N)N)C(=O)N[C@H](C(=O)N[C@@H](Cc1ccc(O)cc1)C(=O)N[C@H](C(=O)N[C@@H](Cc1cnc[nH]1)C(=O)N1CCC[C@H]1C(=O)N[C@@H](C)C(=O)O)C(C)C)C(C)C [saralasin],cell growth,[5]; each 1 μM of Ang II and saralasin,the growth promotion effect was weak as compared with the case of sole use of saralasin
same,cell growth,"[5]; saralasin alone, 10 μM",cell growth was promoted although that was not so significant as in the case of addition of Ang II
